ChEMBL document CHEMBL1136645, “The identification of clinical candidate SB-480848: a potent inhibitor of lipoprotein-associated phospholipase A2” (Bioorg Med Chem Lett, 2003)

Legend:
Cytochrome P450 3A4 = Cytochrome P450 3A4 (Homo sapiens, UniProt P08684); assay: Inhibitory activity against CYP450 3A4 isozyme; type: ADME
[1] = Permeability was determined; type: ADME; conditions: not told; read-out: Permeability (converted)
Cytochrome P450 2D6 = Cytochrome P450 2D6 (Homo sapiens, UniProt P10635); assay: Inhibitory activity against Cytochrome P450 2D6; type: ADME
Sequence of Cytochrome P450 2D6 (P10635 whole entry): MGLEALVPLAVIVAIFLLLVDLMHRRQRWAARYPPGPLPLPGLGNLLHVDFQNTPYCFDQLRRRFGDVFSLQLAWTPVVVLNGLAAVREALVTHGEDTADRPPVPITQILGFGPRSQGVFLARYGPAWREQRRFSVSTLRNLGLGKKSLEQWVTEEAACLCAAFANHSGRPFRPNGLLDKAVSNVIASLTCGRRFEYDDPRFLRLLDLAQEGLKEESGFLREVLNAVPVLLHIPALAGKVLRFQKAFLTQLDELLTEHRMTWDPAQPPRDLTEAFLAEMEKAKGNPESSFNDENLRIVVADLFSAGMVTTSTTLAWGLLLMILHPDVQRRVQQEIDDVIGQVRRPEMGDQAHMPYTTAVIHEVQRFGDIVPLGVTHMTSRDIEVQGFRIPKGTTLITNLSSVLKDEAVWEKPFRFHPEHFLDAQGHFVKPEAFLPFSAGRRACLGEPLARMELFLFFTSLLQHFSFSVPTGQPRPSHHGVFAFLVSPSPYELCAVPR

[2] = Oral bioavailability in fed rat; type: ADME, organism-based; conditions: in vivo
Homo sapiens [3] = species: Homo sapiens; assay: Inhibitory concentration against lyso-PtdCho production in human LDL
[4] = Oral bioavailability in dog; type: ADME, organism-based, Canis lupus familiaris; conditions: in vivo
[5] = Permeability in plasma; type: ADME, cell-free; conditions: not told; read-out: Permeability (converted)
[6] = Oral bioavailability in fasted rat; type: ADME, organism-based; conditions: in vivo
Homo sapiens [7] = species: Homo sapiens; assay: Inhibitory concentration against monocyte chemotaxis
[8] = target: T1, Platelet-activating factor acetylhydrolase (Homo sapiens, UniProt Q13093); assay: Inhibitory activity against recombinant human Lp-PLA2
T1 sequence (Q13093 whole entry): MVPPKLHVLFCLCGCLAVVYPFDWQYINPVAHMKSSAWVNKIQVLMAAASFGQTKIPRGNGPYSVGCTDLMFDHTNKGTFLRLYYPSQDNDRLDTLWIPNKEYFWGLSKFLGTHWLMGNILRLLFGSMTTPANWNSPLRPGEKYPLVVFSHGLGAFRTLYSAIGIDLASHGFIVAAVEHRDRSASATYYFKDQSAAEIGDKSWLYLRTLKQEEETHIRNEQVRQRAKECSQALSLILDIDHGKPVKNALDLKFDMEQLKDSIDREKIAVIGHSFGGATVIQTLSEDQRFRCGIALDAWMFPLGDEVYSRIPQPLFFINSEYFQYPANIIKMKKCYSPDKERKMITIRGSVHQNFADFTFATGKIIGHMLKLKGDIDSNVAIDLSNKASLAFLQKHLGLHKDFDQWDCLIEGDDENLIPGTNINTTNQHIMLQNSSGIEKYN

Sequence of Cytochrome P450 3A4 (P08684 whole entry): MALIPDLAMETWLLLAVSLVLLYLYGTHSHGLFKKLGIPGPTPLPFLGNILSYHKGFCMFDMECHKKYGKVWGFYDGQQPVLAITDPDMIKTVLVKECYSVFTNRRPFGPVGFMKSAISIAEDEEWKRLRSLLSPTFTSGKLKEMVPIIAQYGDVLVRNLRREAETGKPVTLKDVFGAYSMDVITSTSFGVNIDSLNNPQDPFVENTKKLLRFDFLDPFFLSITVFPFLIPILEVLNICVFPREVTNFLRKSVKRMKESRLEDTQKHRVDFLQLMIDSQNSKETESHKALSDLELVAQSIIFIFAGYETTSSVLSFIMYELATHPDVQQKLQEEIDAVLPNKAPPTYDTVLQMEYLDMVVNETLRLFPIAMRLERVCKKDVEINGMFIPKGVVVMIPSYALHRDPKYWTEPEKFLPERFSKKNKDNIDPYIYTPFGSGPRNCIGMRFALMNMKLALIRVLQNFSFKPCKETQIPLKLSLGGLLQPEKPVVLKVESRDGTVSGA

IC50 (Cytochrome P450 3A4)	Papp [1]	IC50 (Cytochrome P450 2D6)	Papp [5]	IC50 [8]	SMILES	further results
13 µM	27.8 ×10⁻⁶ cm/s	15 µM			CCN(CC)CCN(Cc1ccc(-c2ccc(Cl)cc2)cc1)C(=O)Cn1cc(C)c(=O)nc1SCc1ccc(F)cc1	
		26 µM	27.8 ×10⁻⁶ cm/s		CCN(CC)CCN(Cc1ccc(-c2ccc(C(F)(F)F)cc2)cc1)C(=O)Cn1c(SCc2ccc(F)cc2)nc(=O)c2c1CCC2 [DARAPLADIB]	bioavailability [2]: 11%; IC50 (Homo sapiens [3]): 4 µM; bioavailability [4]: 28%; bioavailability [6]: ~21%; IC50 (Homo sapiens [7]): 4 µM
5 µM		6 µM		0.00025 µM	CCN(CC)CCN(Cc1ccc(-c2ccc(Cl)cc2)cc1)C(=O)Cn1c(SCc2ccc(F)cc2)nc(=O)c2c1CCCC2	
			0.833 ×10⁻⁶ cm/s	0.006 µM	CCN(CC)CCN(Cc1ccc(-c2ccc(C(F)(F)F)cc2)cc1)C(=O)Cn1cc(CCNC(C)=O)c(=O)nc1SCc1ccc(F)cc1	
17 µM	22.2 ×10⁻⁶ cm/s	39 µM		0.001 µM	CCN(CC)CCN(Cc1ccc(-c2ccc(C(F)(F)F)cc2)cc1)C(=O)Cn1cc(C)c(=O)nc1SCc1ccc(F)cc1	
10 µM		9 µM	16.7 ×10⁻⁶ cm/s	0.0001 µM	CCN(CC)CCN(Cc1ccc(-c2ccc(C(F)(F)F)cc2)cc1)C(=O)Cn1c(SCc2ccc(F)cc2)nc(=O)c2c1CCCC2	
5 µM	36.1 ×10⁻⁶ cm/s	22 µM		0.0008 µM	CCCc1cn(CC(=O)N(CCN(CC)CC)Cc2ccc(-c3ccc(C(F)(F)F)cc3)cc2)c(SCc2ccc(F)cc2)nc1=O	
	1.67 ×10⁻⁶ cm/s			0.0008 µM	CCN(CC)CCN(Cc1ccc(-c2ccc(C(F)(F)F)cc2)cc1)C(=O)Cn1cc([S+](C)[O-])c(=O)nc1SCc1ccc(F)cc1 (stereo unspecified)	
	0.556 ×10⁻⁶ cm/s			0.0015 µM	CCN(CC)CCN(Cc1ccc(-c2ccc(C(F)(F)F)cc2)cc1)C(=O)Cn1cc(CO)c(=O)nc1SCc1ccc(F)cc1	
	0.833 ×10⁻⁶ cm/s				CCN(CC)CCN(Cc1ccc(-c2ccc(C(F)(F)F)cc2)cc1)C(=O)Cn1cc(CCO)c(=O)nc1SCc1ccc(F)cc1	
22 µM		47 µM	13.9 ×10⁻⁶ cm/s		CCN(CC)CCN(Cc1ccc(-c2ccc(C(F)(F)F)cc2)cc1)C(=O)Cn1c(C)cc(=O)nc1SCc1ccc(F)cc1	
29 µM	30.6 ×10⁻⁶ cm/s	83 µM		0.003 µM	CCN(CC)CCN(Cc1ccc(-c2ccc(C(F)(F)F)cc2)cc1)C(=O)Cn1cc(Cl)c(=O)nc1SCc1ccc(F)cc1	
11 µM	27.8 ×10⁻⁶ cm/s	24 µM		0.0004 µM	CCc1cn(CC(=O)N(CCN(CC)CC)Cc2ccc(-c3ccc(C(F)(F)F)cc3)cc2)c(SCc2ccc(F)cc2)nc1=O	
39 µM	25 ×10⁻⁶ cm/s	56 µM		0.001 µM	CCN(CC)CCN(Cc1ccc(-c2ccc(C(F)(F)F)cc2)cc1)C(=O)Cn1cc(Br)c(=O)nc1SCc1ccc(F)cc1	
					CCN(CC)CCN(Cc1ccc(-c2ccc(C(F)(F)F)cc2)cc1)C(=O)Cn1cc(Cc2cnn(C)c2)c(=O)nc1SCc1ccc(F)cc1	bioavailability [2]: 2%
	6.94 ×10⁻⁶ cm/s				CCN(CC)CCN(Cc1ccc(-c2ccc(C(F)(F)F)cc2)cc1)C(=O)Cn1cc(OC)c(=O)nc1SCc1ccc(F)cc1	
				0.038 µM	CCN(CC)CCN(Cc1ccc(-c2ccc(C(F)(F)F)cc2)cc1)C(=O)Cn1cc(CCN)c(=O)nc1SCc1ccc(F)cc1	
22 µM		24 µM	8.33 ×10⁻⁶ cm/s		CCN(CC)CCN(Cc1ccc(-c2ccc(C(F)(F)F)cc2)cc1)C(=O)Cn1c(SCc2ccc(F)cc2)nc(=O)c(C)c1C	
18 µM		25 µM	38.9 ×10⁻⁶ cm/s	0.0004 µM	CCN(CC)CCN(Cc1ccc(-c2ccc(Cl)cc2)cc1)C(=O)Cn1c(SCc2ccc(F)cc2)nc(=O)c2c1CCC2	
			1.39 ×10⁻⁶ cm/s	0.001 µM	CCN(CC)CCN(Cc1ccc(-c2ccc(C(F)(F)F)cc2)cc1)C(=O)Cn1cc(CCNS(C)(=O)=O)c(=O)nc1SCc1ccc(F)cc1	
15 µM	8.33 ×10⁻⁶ cm/s	39 µM		0.0008 µM	CCN(CC)CCN(Cc1ccc(-c2ccc(C(F)(F)F)cc2)cc1)C(=O)Cn1cc(SC)c(=O)nc1SCc1ccc(F)cc1	
7 µM	33.3 ×10⁻⁶ cm/s	14 µM			CCc1cn(CC(=O)N(CCN(CC)CC)Cc2ccc(-c3ccc(Cl)cc3)cc2)c(SCc2ccc(F)cc2)nc1=O	
